Reference: patent US7300784B2 (priority 2001, dated 2007)
Several values for one entry are separate records, joined by “and”; a condition that tells them apart may be missing. Identical values can stand only once. Like-named read-outs stand apart in the source and are kept apart here.

Key:
[1] = test system: Rhodococcus rhodochrous ATCC 332878; assay type: cell-based
[2] = test system: Rhodococcus sp. Cr4; assay type: cell-based
[3] = test system: nitrile hydratase of Rhodococcus sp. Cr4; assay type: biochemical
[4] = test system: nitrile hydratase of Rhodococcus sp. Cr4; experiment: Substrate specificity of the purified nitrile hydratase (amide formation by HPLC); assay type: biochemical; details: for substrate suitability: purified nitrile hydratase
Procedure: (§1) The standard assay method for the nitrile hydratase activity used in the following Examples as follows. The enzyme reaction is initiated by adding 3-cyanopyridine or 2-hydroxy-4-methylthiobutyronitrile (HMBN) as the substrate compound. In the case of 3-cyanopyridine, incubation was continued at 20° C. for 10 minute, in the case of HMBN, at 20° C. for 15 minutes. When 3-cyanopyridine was used in the reaction, 0.1 ml of 2 N hydrochloric acid was added to the reaction and the mixture was shaken vigorously to stop the reaction; when HMBN was used in the reaction, 0.1 ml of the reaction solution was added to 0.9 ml of 0.1% (v/v) phosphoric acid and the mixture was shaken vigorously to stop the reaction. The reaction solution was analyzed by HPLC.
• 0.3 M 3-cyanopyridine was added to initiate the reaction. • The mixture was incubated with shaking at 20° C. for […]. • 2 N HCl was added to stop the reaction. • Centrifugation. • HPLC analysis.
The substrate specificity of the enzymewas examined. With the standard composition reaction solution shown in table 2, 2.92 U enzyme was incubated with various types of substrates, instead of 3-cyanopyridine; the generation of amides in the reaction solution was analyzed by HPLC. Thus, the relative activity was determined. The types of substrate compounds added, final concentrations thereof, reaction times, and HPLC conditions used for the analyses of products corresponding to the respective substrates are shown in Table 6. The HPLC conditions (1)-(9) are indicated next to Table 6.
The conditions for HPLC were as follows: • (1) Column: Waters Spherisorb 5 μODS2 (4.6×150 mm); • Solvent: 10 mM KH2PO4(pH 2.8)/acetonitrile (v/v)=9:1; • Flow rate: 1.0 ml/min; • Detection: 230 nm; • Injection volume: 5 μl. • (2) Column: Waters Spherisorb 5 μODS2 (4.6×150 mm); • Solvent: 10 mM KH2PO4(pH 2.8)/acetonitrile (v/v)=9:1; • Flow rate: 1.0 ml/min; • Detection: 230 nm; • Injection volume:5 μl. • (3) Column: Waters Spherisorb 5 μODS2 (4.6×150 mm); • Solvent: 5 mM KH2PO4 (pH 2.8)/acetonitrile (v/v)=12:7; • Flow rate: 1.0 ml/min; • Detection: 230 nm; • Injection volume: 5 μl. • (4) Column: Waters Spherisorb 5 μODS2 (4.6×150 mm); • Solvent: 10 mM KH2PO4(pH 2.5)/acetonitrile (v/v)=99:1; • Flow rate: 1.0 ml/min; • Detection: 210 nm; • Injection volume: 5 μl. • (5) Column: Waters Spherisorb 5 μODS2 (4.6×150 mm); • Solvent: 10 mM KH2PO4(pH 2.5)/acetonitrile (v/v)=99:1; • Flow rate: 1.0 ml/min; • Detection: 230 nm; • Injection volume: 5 μl. • (6) Column: Spherisorb S5ODS2 (4.6×150 mm) • Solvent: 0.1% (v/v) phosphate/acetonitrile (v/v)=99:1; • Flow rate: 1.0 ml/min; • Detection: 210 nm; • Injection volume: 5 μl. • (7) Column: Spherisorb S5ODS2 (4.6×150 mm); • Solvent: 0.1% (v/v) phosphate/acetonitrile (v/v)=9:1; • Flow rate: 1.0 ml/min; • Detection: 210 nm; • Injection volume: 5 μl; • Temperature: 40° C. • (8) Column: Spherisorb S5ODS2 (4.6×150 mm); • Solvent: 0.1%(v/v) phosphate/acetonitrile (v/v)=9:1; • Flow rate: 1.0 ml/min; • Detection: 230 nm; • Injection volume: 5 μl • Temperature: 40° C. • (9) Column: Spherisorb S5ODS2 (4.6×150 mm); • Solvent: 5 mM KH2PO4 (pH 2.8)/acetonitrile (v/v)=12:7; • Flow rate: 1.0 ml/min; • Detection: 210 nm; • Injection volume: 5 μl; • Temperature: 40° C. 13. The Effect of Inhibitors on the Enzymatic Activity

[5] = test system: nitrile hydratase of Rhodococcus sp. Cr4; experiment: Effect of substrate concentration (Km value, Lineweaver-Burk plot); assay type: biochemical; details: 20° C., 15 minutes
Procedure: The Km value for HMBN was determined from the S-V plot (FIG. 4) and Lineweaver-Burk plot (FIG. 5). 0.0585 U of the enzyme was added to solutions containing HMBN at various concentrations and the reactions were incubated at 20° C. for 15 minutes. The reactions were analyzed by HPLC.
In addition, the Km value for 3-cyanopyridine was determined from the S-V plot (FIG. 6) and Lineweaver-Burk plot (FIG. 7). Similarly, 0.0265 U of the enzyme was added to solutions containing 3-cyanopyridine at various concentrations and the reactions were incubated at 20° C. for 15 minutes. The reactions were analyzed by HPLC.

[6] = test system: nitrile hydratase of Rhodococcus sp. Cr4; experiment: Effect of coexisting Ni++ ion with various substrates; assay type: biochemical; details: for effect of Ni++ on activity with this substrate: Ni++ added
Procedure: Then, with the standard composition of reaction solution shown in table 2, various types of substrates, instead of 3-cyanopyridine, were added to the solutions containing 2.92 U enzyme to study their effects on the activity. […] The addition of Ni^++ ion was assumed to specifically enhance the reaction efficiency when the substrate was a α-hydroxynitrile (Table 11).
The incubation was prolonged for 10 minutes at 20° C. using 2.92 U enzyme. 17. Determination of N-Terminal Amino Acid Sequence

[7] = test system: nitrile hydratase of Rhodococcus sp. Cr4; assay type: biochemical; details: for effect on enzyme activity (words): inhibitors
Procedure: as §1
• 10% (v/v) HMBN was added to initiate the reaction. • The mixture was incubated with shaking at 20° C. for 10 minutes. • 0.1% (v/v) H3PO4 was added to stop the reaction. • Centrifugation. • HPLC analysis.
Inhibitors to the enzyme were studied. With the standard composition of reaction solution shown in Table 1, various inhibitors were added at a final concentration 1.0 mM or 0.1 mM to the solutions containing 2.92 U enzyme; after the mixtures were incubated at 20° C. for 10 minutes, the reaction was carried out for 15 minutes.

[8] = compound used as substrate, activity for 3-cyanopyridine = 100%, 20° C., 2.92 U enzyme
[9] = compound 1.0 mM, Free = 100, HMBN substrate, 20° C.
[10] = compound used as substrate, methanol added (final conc. 20% v/v), 20° C., 2.92 U enzyme

CoCl2
Relative activity (%) [1]: 123%
Relative activity (%) [2]: 137%
effect on nitrile hydratase activity in resting cell reaction [2]: enhanced
Relative activity (%) [3]: 154%
effect on enzyme activity (words) [3]: enhanced
enhancement of the enzymatic activity [3]: 1.5 times
Relative activity (%) ([3]; 0 mM = 100): 136% and 127% and 129% and 150% and 153% and 143%

CSCCC(O)C#N (stereo not drawn) [HMBN, 2-hydroxy-4-methylthiobutyronitrile]
Relative activity (%) [4, 8]: 154%
Km [5]: 1430 µM
activity, Free [6]: 100
activity, NiCl2 (1 mM) [6]: 196
effect of Ni++ on activity with this substrate [6]: enhanced twice

[Cl][Mn][Cl] [MnCl2]
Relative activity (%) [3]: 96.7%

O=S(=O)([O-])[O-].[Fe+2] [FeSO4]
Relative activity (%) [3]: 78.9%

N#Cc1ccc(Cl)cc1 [p-Chlorobenzonitrile]
Relative activity (%) [4]: 28.4%

O=C(O)CI [Iodoacetate]
Relative activity (%) [7]: 97.0%

NO [Hydroxylamine]
Relative activity (%) [7, 9]: 62.1%
effect on enzyme activity (words) [7]: markedly inhibited

O=S(=O)([O-])[O-].[Cu+2] [CuSO4]
Relative activity (%) [3]: 109%

O=C(O)c1cc[c]([Hg][Cl])cc1 [p-Chloromercuribenzoate]
Relative activity (%) [7, 9]: 97.7%

N#Cc1ccncc1 [4-Cyanopyridine]
Relative activity (%) [4, 8]: 127%
activity, Free [6]: 100
activity, NiCl2 (1 mM) [6]: 99

N#CCc1c[nH]c2ccccc12 [3-Indolylacetonitrile]
Relative activity (%) [4, 10]: 2.33%

NNc1ccccc1 [Phenylhydrazine]
Relative activity (%) [7, 9]: 8.19%
effect on enzyme activity (words) ([7]; listed as phenyl hydrazine): markedly inhibited
effect on enzyme activity (words) ([7]; listed as phenylhydrazine): inhibited

N#CC(O)c1ccccc1 (stereo not drawn) [Manderonitlile]
activity, Free [6]: 100
activity, NiCl2 (1 mM) [6]: 201
effect of Ni++ on activity with this substrate [6]: enhanced twice

NCCS [Cysteamine]
Relative activity (%) [7]: 106%

O=C(O)CN(CCN(CC(=O)O)CC(=O)O)CC(=O)O [EDTA]
Relative activity (%) [7]: 101%

N#Cc1ccccc1 [Benzonitrile]
Relative activity (%) [4]: 138%

N#CCCO [Etylene cyanohydrin]
activity, Free [6]: 100
activity, NiCl2 (1 mM) [6]: 91

CCCCCC#N [n-Capronitrile]
Relative activity (%) [4, 10]: 18.1%

N#Cc1ccccn1 [2-Cyanopyridine]
Relative activity (%) [4, 8]: 223%
substrate suitability [4]: suitable substrates
activity, Free [6]: 100
activity, NiCl2 (1 mM) [6]: 97

N#CCCN [3-aminopropyonitlile]
activity, Free [6]: 100
activity, NiCl2 (1 mM) [6]: 97

CC(C)CC#N [Isovaleronitrile]
Relative activity (%) [4, 10]: 2.71%

N#CCC#N [Malononitrile]
substrate suitability [4]: suitable substrates

C=CC#N [Acrylonitrile]
Relative activity (%) [4, 8]: 114%

N#CCO [Hydroxyacetonitlile]
activity, Free [6]: 0
activity, NiCl2 (1 mM) [6]: 0

CCCCC#N [n-Valeronitrile]
Relative activity (%) [4, 10]: 118%
